In ChEMBL document CHEMBL4507285, “Data for DCP probe MRL-SYKi” (2021):
Active and inactive are the calls of the source. No cut-off for these calls is given here.

Experiments:
[1] = target: Proto-oncogene tyrosine-protein kinase receptor Ret (Homo sapiens) (UniProt P07949); details: Compound concentration 100.0 nM
[2] = target: Phosphorylase b kinase regulatory subunit alpha, liver isoform (Homo sapiens) (UniProt P46019); details: Compound concentration 100.0 nM
[3] = target: Serine/threonine-protein kinase pim-3 (Homo sapiens) (UniProt Q86V86); details: Compound concentration 100.0 nM
[4] = target: Insulin receptor (Homo sapiens) (UniProt P06213); details: Compound concentration 100.0 nM
[5] = target: Bone morphogenetic protein receptor type-2 (Homo sapiens) (UniProt Q13873); details: Compound concentration 100.0 nM
Bone morphogenetic protein receptor type-2 (Homo sapiens), sequence (Q13873 whole entry): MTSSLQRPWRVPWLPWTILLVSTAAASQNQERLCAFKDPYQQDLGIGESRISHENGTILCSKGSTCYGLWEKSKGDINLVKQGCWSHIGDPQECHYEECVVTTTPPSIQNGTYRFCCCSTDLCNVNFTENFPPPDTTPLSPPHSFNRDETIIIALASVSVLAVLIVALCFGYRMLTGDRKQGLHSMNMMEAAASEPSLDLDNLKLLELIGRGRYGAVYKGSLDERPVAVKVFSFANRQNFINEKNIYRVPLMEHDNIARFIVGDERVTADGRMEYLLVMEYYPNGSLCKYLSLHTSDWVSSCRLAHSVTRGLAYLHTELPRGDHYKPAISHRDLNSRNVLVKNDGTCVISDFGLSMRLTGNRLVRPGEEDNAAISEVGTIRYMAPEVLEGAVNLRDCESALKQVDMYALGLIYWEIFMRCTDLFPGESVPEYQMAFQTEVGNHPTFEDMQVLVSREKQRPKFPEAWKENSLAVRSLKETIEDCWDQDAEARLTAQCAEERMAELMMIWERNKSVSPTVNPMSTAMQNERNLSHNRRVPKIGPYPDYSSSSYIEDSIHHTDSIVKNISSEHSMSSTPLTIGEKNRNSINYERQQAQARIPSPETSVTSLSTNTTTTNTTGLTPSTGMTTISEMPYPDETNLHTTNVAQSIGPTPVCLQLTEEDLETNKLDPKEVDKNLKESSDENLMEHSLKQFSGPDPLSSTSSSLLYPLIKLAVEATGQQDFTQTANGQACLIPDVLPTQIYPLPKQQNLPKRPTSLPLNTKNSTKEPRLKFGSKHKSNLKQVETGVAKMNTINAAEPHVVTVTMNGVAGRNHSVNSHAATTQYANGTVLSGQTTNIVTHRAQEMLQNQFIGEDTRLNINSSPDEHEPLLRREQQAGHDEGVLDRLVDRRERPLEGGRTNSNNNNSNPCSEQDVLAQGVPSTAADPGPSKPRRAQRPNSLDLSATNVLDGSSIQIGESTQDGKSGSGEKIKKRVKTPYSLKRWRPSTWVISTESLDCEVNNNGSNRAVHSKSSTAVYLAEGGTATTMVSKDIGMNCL

[6] = target: Dual specificity mitogen-activated protein kinase kinase 7 (Homo sapiens) (UniProt O14733); details: Compound concentration 100.0 nM
[7] = target: Myosin-IIIa (Homo sapiens) (UniProt Q8NEV4); details: Compound concentration 100.0 nM
[8] = target: Tyrosine-protein kinase SYK (Homo sapiens, UniProt P43405); test: Human SKY enzyme assay
[9] = target: Myosin light chain kinase, smooth muscle (Homo sapiens) (UniProt Q15746); details: Compound concentration 100.0 nM
Myosin light chain kinase, smooth muscle (Homo sapiens), sequence (Q15746 whole entry): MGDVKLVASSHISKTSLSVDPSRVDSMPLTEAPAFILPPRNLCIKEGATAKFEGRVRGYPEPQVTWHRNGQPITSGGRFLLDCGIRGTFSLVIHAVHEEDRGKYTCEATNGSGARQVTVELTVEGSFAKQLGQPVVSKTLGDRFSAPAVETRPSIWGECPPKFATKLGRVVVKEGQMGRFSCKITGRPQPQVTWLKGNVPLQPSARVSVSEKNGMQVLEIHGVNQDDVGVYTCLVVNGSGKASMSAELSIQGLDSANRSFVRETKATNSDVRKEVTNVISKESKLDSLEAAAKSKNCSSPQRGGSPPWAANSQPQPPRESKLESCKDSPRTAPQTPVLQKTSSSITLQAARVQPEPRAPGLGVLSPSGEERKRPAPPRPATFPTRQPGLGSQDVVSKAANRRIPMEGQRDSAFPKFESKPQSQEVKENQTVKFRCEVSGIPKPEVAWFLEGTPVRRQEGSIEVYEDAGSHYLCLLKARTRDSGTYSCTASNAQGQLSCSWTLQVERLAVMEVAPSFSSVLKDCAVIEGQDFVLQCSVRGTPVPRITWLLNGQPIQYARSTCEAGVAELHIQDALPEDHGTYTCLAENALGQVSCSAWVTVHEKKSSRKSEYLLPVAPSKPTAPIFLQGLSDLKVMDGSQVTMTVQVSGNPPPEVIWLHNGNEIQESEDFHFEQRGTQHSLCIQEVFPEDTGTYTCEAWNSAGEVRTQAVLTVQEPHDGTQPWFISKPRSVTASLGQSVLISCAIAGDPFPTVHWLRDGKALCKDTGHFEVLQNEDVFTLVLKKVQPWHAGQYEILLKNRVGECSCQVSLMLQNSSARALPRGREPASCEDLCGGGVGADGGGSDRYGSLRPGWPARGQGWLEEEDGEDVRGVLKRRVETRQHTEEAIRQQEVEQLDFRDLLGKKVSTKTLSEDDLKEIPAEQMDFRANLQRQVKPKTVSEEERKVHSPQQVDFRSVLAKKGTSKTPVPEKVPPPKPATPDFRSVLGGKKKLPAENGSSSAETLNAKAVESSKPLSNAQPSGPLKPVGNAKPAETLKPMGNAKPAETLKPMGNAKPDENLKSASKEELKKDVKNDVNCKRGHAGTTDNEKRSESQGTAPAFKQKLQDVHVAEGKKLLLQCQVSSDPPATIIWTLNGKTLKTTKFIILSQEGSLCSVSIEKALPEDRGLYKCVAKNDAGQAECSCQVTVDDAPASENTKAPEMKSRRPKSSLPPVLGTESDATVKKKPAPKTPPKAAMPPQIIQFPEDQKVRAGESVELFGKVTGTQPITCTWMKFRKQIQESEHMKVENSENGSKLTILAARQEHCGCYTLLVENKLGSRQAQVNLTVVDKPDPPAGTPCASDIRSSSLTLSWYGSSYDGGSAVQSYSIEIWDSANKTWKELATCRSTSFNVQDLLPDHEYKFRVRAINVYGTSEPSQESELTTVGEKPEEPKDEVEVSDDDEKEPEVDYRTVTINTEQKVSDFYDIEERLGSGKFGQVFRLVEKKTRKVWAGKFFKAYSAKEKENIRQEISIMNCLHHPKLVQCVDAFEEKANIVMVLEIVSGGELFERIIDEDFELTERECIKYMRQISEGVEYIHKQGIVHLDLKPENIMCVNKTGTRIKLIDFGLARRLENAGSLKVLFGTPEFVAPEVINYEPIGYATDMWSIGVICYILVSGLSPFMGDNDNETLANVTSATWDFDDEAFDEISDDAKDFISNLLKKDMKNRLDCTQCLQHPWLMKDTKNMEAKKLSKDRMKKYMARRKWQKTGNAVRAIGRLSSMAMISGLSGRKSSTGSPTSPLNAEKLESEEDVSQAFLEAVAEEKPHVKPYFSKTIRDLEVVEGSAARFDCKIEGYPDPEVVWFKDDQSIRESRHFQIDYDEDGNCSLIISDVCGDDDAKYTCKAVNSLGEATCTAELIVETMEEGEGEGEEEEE

[10] = target: Serine/threonine-protein kinase NLK (Homo sapiens) (UniProt Q9UBE8); details: Compound concentration 100.0 nM
[11] = target: Cyclin-G-associated kinase (Homo sapiens) (UniProt O14976); details: Compound concentration 100.0 nM
Cyclin-G-associated kinase (Homo sapiens), sequence (O14976 whole entry): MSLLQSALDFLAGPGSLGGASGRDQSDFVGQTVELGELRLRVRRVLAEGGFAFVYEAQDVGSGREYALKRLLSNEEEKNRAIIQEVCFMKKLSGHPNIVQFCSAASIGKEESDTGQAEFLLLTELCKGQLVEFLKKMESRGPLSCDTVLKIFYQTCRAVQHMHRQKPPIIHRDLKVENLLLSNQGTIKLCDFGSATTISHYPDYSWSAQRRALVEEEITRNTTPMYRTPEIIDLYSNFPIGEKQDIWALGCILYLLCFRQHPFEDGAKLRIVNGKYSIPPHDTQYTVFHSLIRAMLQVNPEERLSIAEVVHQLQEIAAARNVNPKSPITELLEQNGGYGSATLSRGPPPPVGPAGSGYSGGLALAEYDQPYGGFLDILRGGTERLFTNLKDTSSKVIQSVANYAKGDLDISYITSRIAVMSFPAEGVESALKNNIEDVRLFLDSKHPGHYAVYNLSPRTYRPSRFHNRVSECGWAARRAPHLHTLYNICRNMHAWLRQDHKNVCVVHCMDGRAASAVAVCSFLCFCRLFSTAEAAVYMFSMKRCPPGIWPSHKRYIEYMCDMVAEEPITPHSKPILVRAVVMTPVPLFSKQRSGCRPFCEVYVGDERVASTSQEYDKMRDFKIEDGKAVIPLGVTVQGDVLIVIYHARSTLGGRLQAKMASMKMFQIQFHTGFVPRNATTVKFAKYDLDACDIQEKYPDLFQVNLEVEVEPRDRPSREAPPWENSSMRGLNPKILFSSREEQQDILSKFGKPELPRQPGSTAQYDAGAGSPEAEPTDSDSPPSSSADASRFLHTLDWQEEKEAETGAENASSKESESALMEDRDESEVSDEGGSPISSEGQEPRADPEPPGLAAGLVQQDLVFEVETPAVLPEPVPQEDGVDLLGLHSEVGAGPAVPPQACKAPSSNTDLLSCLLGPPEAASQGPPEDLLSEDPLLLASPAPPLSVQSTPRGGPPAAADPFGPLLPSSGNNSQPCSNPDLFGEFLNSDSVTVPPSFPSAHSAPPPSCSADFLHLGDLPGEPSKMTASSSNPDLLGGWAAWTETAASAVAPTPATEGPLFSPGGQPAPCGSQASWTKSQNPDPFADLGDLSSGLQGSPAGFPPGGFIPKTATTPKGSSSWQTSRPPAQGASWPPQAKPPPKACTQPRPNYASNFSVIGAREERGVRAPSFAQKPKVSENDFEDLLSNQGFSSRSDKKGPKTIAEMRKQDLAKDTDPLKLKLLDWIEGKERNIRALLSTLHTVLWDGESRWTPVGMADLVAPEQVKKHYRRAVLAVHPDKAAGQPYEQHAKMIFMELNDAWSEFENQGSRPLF

[12] = target: Myosin light chain kinase 2, skeletal/cardiac muscle (Homo sapiens) (UniProt Q9H1R3); details: Compound concentration 100.0 nM
[13] = target: Beta-2 adrenergic receptor (Homo sapiens) (UniProt P07550); details: Compound concentration 10.0 uM
[14] = target: Calcium/calmodulin-dependent protein kinase type 1 (Homo sapiens) (UniProt Q14012); details: Compound concentration 100.0 nM
[15] = target: Serine/threonine-protein kinase LATS1 (Homo sapiens) (UniProt O95835); details: Compound concentration 100.0 nM
[16] = target: G protein-coupled receptor kinase 4 (Homo sapiens) (UniProt P32298); details: Compound concentration 100.0 nM
[17] = target: Cyclin-dependent kinase 2 (Homo sapiens) (UniProt P24941); details: Compound concentration 100.0 nM
[18] = target: Serine/threonine-protein kinase Nek11 (Homo sapiens) (UniProt Q8NG66); details: Compound concentration 100.0 nM
[19] = tested on: Receptor-type tyrosine-protein kinase FLT3 (Homo sapiens), P36888 [UNDEFINED MUTATION]; details: Compound concentration 100.0 nM
[20] = tested on: Epidermal growth factor receptor (Homo sapiens), P00533 [UNDEFINED MUTATION]; details: Compound concentration 100.0 nM
[21] = target: Serine/threonine-protein kinase pim-2 (Homo sapiens) (UniProt Q9P1W9); details: Compound concentration 100.0 nM
[22] = target: BDNF/NT-3 growth factors receptor (Homo sapiens) (UniProt Q16620); details: Compound concentration 100.0 nM
[23] = target: Ankyrin repeat and protein kinase domain-containing protein 1 (Homo sapiens) (UniProt Q8NFD2); details: Compound concentration 100.0 nM
[24] = tested on: Receptor-type tyrosine-protein kinase FLT3 (Homo sapiens), P36888 [UNDEFINED MUTATION]; details: Compound concentration 100.0 nM; remark: listed apart in the source
[25] = target: MAP/microtubule affinity-regulating kinase 4 (Homo sapiens) (UniProt Q96L34); details: Compound concentration 100.0 nM
[26] = target: Mitogen-activated protein kinase 9 (Homo sapiens) (UniProt P45984); details: Compound concentration 100.0 nM
[27] = target: MAP kinase-activated protein kinase 2 (Homo sapiens) (UniProt P49137); details: Compound concentration 100.0 nM
[28] = target: Ribosomal protein S6 kinase alpha-1 (Homo sapiens) (UniProt Q15418); details: Compound concentration 100.0 nM
[29] = target: Dual specificity mitogen-activated protein kinase kinase 2 (Homo sapiens) (UniProt P36507); details: Compound concentration 100.0 nM
[30] = tested on: Phosphatidylinositol 4,5-bisphosphate 3-kinase catalytic subunit alpha isoform (Homo sapiens), P42336 [H1047L]; details: Compound concentration 100.0 nM
[31] = target: Tyrosine-protein kinase receptor Tie-1 (Homo sapiens) (UniProt P35590); details: Compound concentration 100.0 nM
[32] = target: 1-phosphatidylinositol 3-phosphate 5-kinase (Homo sapiens) (UniProt Q9Y2I7); details: Compound concentration 100.0 nM
[33] = target: Cyclin-dependent kinase 3 (Homo sapiens) (UniProt Q00526); details: Compound concentration 100.0 nM
Cyclin-dependent kinase 3 (Homo sapiens), sequence (Q00526 whole entry, looked up, canonical isoform): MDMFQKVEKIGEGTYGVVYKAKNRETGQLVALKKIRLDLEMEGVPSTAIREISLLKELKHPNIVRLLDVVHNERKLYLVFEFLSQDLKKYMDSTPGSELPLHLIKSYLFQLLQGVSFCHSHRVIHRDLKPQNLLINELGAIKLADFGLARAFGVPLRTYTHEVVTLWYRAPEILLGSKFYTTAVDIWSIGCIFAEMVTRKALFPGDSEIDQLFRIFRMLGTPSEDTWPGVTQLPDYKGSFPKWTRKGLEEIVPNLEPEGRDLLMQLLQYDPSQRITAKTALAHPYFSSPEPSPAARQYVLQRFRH

[34] = target: Casein kinase I isoform gamma-2 (Homo sapiens) (UniProt P78368); details: Compound concentration 100.0 nM
[35] = target: Fibroblast growth factor receptor 2 (Homo sapiens) (UniProt P21802); details: Compound concentration 100.0 nM
[36] = target: Fibroblast growth factor receptor 1 (Homo sapiens) (UniProt P11362); details: Compound concentration 100.0 nM
[37] = target: Cyclin-dependent kinase 5 (Homo sapiens) (UniProt Q00535); details: Compound concentration 100.0 nM
Cyclin-dependent kinase 5 (Homo sapiens), sequence (Q00535 whole entry, looked up): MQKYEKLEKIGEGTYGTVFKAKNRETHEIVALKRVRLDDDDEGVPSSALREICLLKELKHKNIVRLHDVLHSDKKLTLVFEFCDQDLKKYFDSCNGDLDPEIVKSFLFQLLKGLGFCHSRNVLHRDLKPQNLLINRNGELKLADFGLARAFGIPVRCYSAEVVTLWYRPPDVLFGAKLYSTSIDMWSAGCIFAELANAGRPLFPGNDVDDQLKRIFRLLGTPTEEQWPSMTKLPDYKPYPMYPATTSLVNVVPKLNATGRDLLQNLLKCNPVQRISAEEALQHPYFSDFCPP

[38] = target: Serine/threonine-protein kinase MRCK beta (Homo sapiens) (UniProt Q9Y5S2); details: Compound concentration 100.0 nM
[39] = target: Serine/threonine-protein kinase 32A (Homo sapiens) (UniProt Q8WU08); details: Compound concentration 100.0 nM
[40] = tested on: Phosphatidylinositol 4,5-bisphosphate 3-kinase catalytic subunit alpha isoform (Homo sapiens), P42336 [E545A]; details: Compound concentration 100.0 nM
[41] = target: SRSF protein kinase 2 (Homo sapiens) (UniProt P78362); details: Compound concentration 100.0 nM
[42] = target: Mitogen-activated protein kinase kinase kinase 5 (Homo sapiens) (UniProt Q99683); details: Compound concentration 100.0 nM
[43] = target: Serine/threonine-protein kinase 32B (Homo sapiens) (UniProt Q9NY57); details: Compound concentration 100.0 nM
[44] = target: SNF-related serine/threonine-protein kinase (Homo sapiens) (UniProt Q9NRH2); details: Compound concentration 100.0 nM
[45] = tested on: Receptor-type tyrosine-protein kinase FLT3 (Homo sapiens), P36888 [N841I]; details: Compound concentration 100.0 nM

**Q.** Which residual activity [1] does the source give for `Cc1ccc(-c2cnc([C@@]3(O)CC[C@H](C(=O)O)C(C)(C)C3)s2)cc1Nc1cccc(C(F)(F)F)n1` [MRL-SYKi-NC] here?
**A.** 100%

**Q.** And the residual activity [2]?
**A.** 100%

**Q.** What about the residual activity [3] of the same molecule?
**A.** 89.2%

**Q.** And the residual activity [4]?
**A.** 78.7%

**Q.** And the residual activity [5]?
**A.** 54.9%

**Q.** And the residual activity [6]?
**A.** 77.8%

**Q.** And the residual activity [7]?
**A.** 70.1%

**Q.** And the IC50 [8]?
**A.** 4.7 µM (not active)

**Q.** What about the residual activity [9] of the same molecule?
**A.** 86.6%

**Q.** What about the residual activity [10] of the same molecule?
**A.** 100%

**Q.** And the residual activity [11]?
**A.** 100%

**Q.** And the residual activity [12]?
**A.** 90.9%

**Q.** And the inhibition [13]?
**A.** 1.6%

**Q.** What about the residual activity [14] of the same molecule?
**A.** 75.3%

**Q.** And the residual activity [15]?
**A.** 100%

**Q.** What about the residual activity [16] of the same molecule?
**A.** 100%

**Q.** What about the residual activity [17] of the same molecule?
**A.** 98.8%

**Q.** What about the residual activity [18] of the same molecule?
**A.** 93%

**Q.** What about the residual activity [19] of the same molecule?
**A.** 56.9%

**Q.** And the residual activity [20]?
**A.** 100%

**Q.** And the residual activity [21]?
**A.** 87.9%

**Q.** What about the residual activity [22] of the same molecule?
**A.** 67.2%

**Q.** And the residual activity [23]?
**A.** 93.5%

**Q.** And the residual activity [24]?
**A.** 97.5%

**Q.** And the residual activity [25]?
**A.** 71.5%

**Q.** And the residual activity [26]?
**A.** 45.3%

**Q.** And the residual activity [27]?
**A.** 97.9%

**Q.** What about the residual activity [28] of the same molecule?
**A.** 91.2%

**Q.** What about the residual activity [29] of the same molecule?
**A.** 87%

**Q.** What about the residual activity [30] of the same molecule?
**A.** 94.8%

**Q.** What about the residual activity [31] of the same molecule?
**A.** 86.8%

**Q.** And the residual activity [32]?
**A.** 89.4%

**Q.** What about the residual activity [33] of the same molecule?
**A.** 92.9%

**Q.** And the residual activity [34]?
**A.** 100%

**Q.** What about the residual activity [35] of the same molecule?
**A.** 100%

**Q.** And the residual activity [36]?
**A.** 92.4%

**Q.** And the residual activity [37]?
**A.** 100%

**Q.** And the residual activity [38]?
**A.** 91.6%

**Q.** And the residual activity [39]?
**A.** 89.7%

**Q.** And the residual activity [40]?
**A.** 74.7%

**Q.** And the residual activity [41]?
**A.** 91.9%

**Q.** What about the residual activity [42] of the same molecule?
**A.** 100%

**Q.** What about the residual activity [43] of the same molecule?
**A.** 63.9%

**Q.** And the residual activity [44]?
**A.** 90.1%

**Q.** And the residual activity [45]?
**A.** 89.3%

**Q.** Which residual activity [1] does the source give for `Cc1cc(Nc2nccc(C)n2)cc(-c2cnc([C@@]3(O)CC[C@H](C(=O)O)C(C)(C)C3)s2)c1` [MRL-SYKi] here?
**A.** 98.8%

**Q.** What about the residual activity [2] of the same molecule?
**A.** 100%

**Q.** What about the residual activity [3] of the same molecule?
**A.** 100%

**Q.** And the residual activity [4]?
**A.** 100%

**Q.** And the residual activity [5]?
**A.** 100%

**Q.** What about the residual activity [6] of the same molecule?
**A.** 90.3%

**Q.** And the residual activity [7]?
**A.** 100%

**Q.** What about the IC50 [8] of the same molecule?
**A.** 0.0009 µM (active)

**Q.** And the residual activity [9]?
**A.** 92.9%

**Q.** And the residual activity [10]?
**A.** 73%

**Q.** What about the residual activity [11] of the same molecule?
**A.** 100%

**Q.** What about the residual activity [12] of the same molecule?
**A.** 100%

**Q.** What about the inhibition [13] of the same molecule?
**A.** 5.53%

**Q.** And the residual activity [14]?
**A.** 99.3%

**Q.** And the residual activity [15]?
**A.** 100%

**Q.** And the residual activity [16]?
**A.** 100%

**Q.** And the residual activity [17]?
**A.** 94.7%

**Q.** And the residual activity [18]?
**A.** 61.2%

**Q.** What about the residual activity [19] of the same molecule?
**A.** 100%

**Q.** And the residual activity [20]?
**A.** 65%

**Q.** And the residual activity [21]?
**A.** 100%

**Q.** And the residual activity [22]?
**A.** 60.3%

**Q.** What about the residual activity [23] of the same molecule?
**A.** 100%

**Q.** And the residual activity [24]?
**A.** 59.1%

**Q.** What about the residual activity [25] of the same molecule?
**A.** 100%

**Q.** What about the residual activity [26] of the same molecule?
**A.** 100%

**Q.** What about the residual activity [27] of the same molecule?
**A.** 100%

**Q.** And the residual activity [28]?
**A.** 93%

**Q.** And the residual activity [29]?
**A.** 89.4%

**Q.** What about the residual activity [30] of the same molecule?
**A.** 81.7%

**Q.** What about the residual activity [31] of the same molecule?
**A.** 68.1%

**Q.** And the residual activity [32]?
**A.** 98.7%

**Q.** What about the residual activity [33] of the same molecule?
**A.** 100%

**Q.** And the residual activity [34]?
**A.** 94.5%

**Q.** And the residual activity [35]?
**A.** 67.3%

**Q.** What about the residual activity [36] of the same molecule?
**A.** 82%

**Q.** What about the residual activity [37] of the same molecule?
**A.** 87.6%

**Q.** What about the residual activity [38] of the same molecule?
**A.** 100%

**Q.** What about the residual activity [39] of the same molecule?
**A.** 100%

**Q.** And the residual activity [40]?
**A.** 72.7%

**Q.** What about the residual activity [41] of the same molecule?
**A.** 100%

**Q.** And the residual activity [42]?
**A.** 83.3%

**Q.** What about the residual activity [43] of the same molecule?
**A.** 100%

**Q.** What about the residual activity [44] of the same molecule?
**A.** 100%

**Q.** What about the residual activity [45] of the same molecule?
**A.** 100%
